From article PMC9365994, “Small molecules to regulate the GH/IGF1 axis by inhibiting the growth hormone receptor synthesis” (Frontiers in Endocrinology, 2022)
Like-named read-outs stand apart in the source and are kept apart here.

System: phosphorylated fos-GHRct (fos-GHRct/Jak2 signaling)
Test: Cell based primary screen: immune fluorescence (anti-GHR, anti-pY, anti-pJak2, anti-pSTAT5) of fos-GHRct-transfected γ2A iJak2 cells
Design: species or system human
Conditions: for phosphorylation of STAT5 (pSTAT5) / phosphorylation of fos-pGHRct (pY) / phosphorylation of the active site of Jak2 (p1007/1008): concentration curves, Fig S10
Protocol: Drug handling and cell-based assays are detailed in Supplementary Data 1 , automation. High-Content StratoMineR ([35]). After incubation with the compounds, the cells were fixed and the fluorescence (anti-GHR, anti-pY, anti-pJak2, anti-pSTAT5) was quantitated.
As it was unknown whether the GH/IGF1 axis is druggable, we designed a broad strategy based on our previous studies in which soluble fos-zipped GHR cytosolic tails (fos-GHRct) can serve as signaling complexes if co-expressed with Jak ([32], [39]). Fos-GHRct expressed without Jak2 is immediately degraded by the ubiquitin pathway. Phosphorylated fos-GHRct (fos-pGHRct) detaches from Jak2 and unzips. Only unzipped fos-pGHRct are protected from proteasomal degradation and accumulate in the cell. […] For 6 scenarios the signal will be decreased: (1) inhibition of Jak2 kinase activity, (2) inhibition of fos-GHRct expression, (3) inhibition of the fos-GHRct : Jak2 interaction, (4) increased degradation of fos-pGHRct, (5) increased degradation of Jak2, and (6) dephosphorylation of fos-pGHRct ([32], [39]).
Figure 1 Diagram of the primary screen. […] If fos-GHRct and Jak2 bind via FERM and box-1, Jak2 gets activated and phosphorylates itself, the dimerized fos-GHRct and STAT5b. After phosphorylation of fos-GHRct, Jak2 and STAT5, the complex dissociates. As fos-pGHRct is protease-resistant, it accumulates in the cells. Unphosphorylated fos-GHRct is rapidly degraded. Steady state levels of fos-pGHRct are lower if one of the 6 scenarios is valid. The cell-based assay was performed in γ2A cells carrying inducible Jak2 (iJak2) or binding-deficient iJak2 Y119E (as control) ( Figure 2 ). […]
1. Cell based primary screen
The assay was based on Fos-zippered GHR cytosolic tails (fos-GHRct) subsequently acting […]
Fig S1A. Immune Fluorescence staining of γ2a Fig S1B. Immune Fluorescence staining of γ2a monoclonal cell line stably transfected with an monoclonal cell line stably transfected with an inducible Jak2 WT expression construct. inducible Jak2 Y119E expression construct. aim we used a human fibroblast cell line
From this line we generated doxycycline inducible Jak2 clones, expressing either wild type Jak2 or Y119E mutant Jak2 whose FERM domain does […]
To establish a sensitive test, sufficient […]
control the system, we used fos-GHRct mutated in box-1 or the cell line expressing mutant (Y119E) Jak2. The box-1 motif is the binding site of Jak2 in GHR; mutation of this motif (all four proline into alanine) is known to reduce the binding between GHR and Jak2. In the primary screen we measured 4 different signals: fos-GHRct (anti-GHR), tyrosine phosphorylated fos-GHRct (anti-pY), tyrosine phosphorylated Jak2 (anti-pY or anti- […]
inhibition of either fos-GHRct stabilization or fos-GHRct synthesis, are considered positive.
Immunoblots are not appropriate for high throughput screening. Using fos-GHRct-transfected cells as in Fig. S3 and pY-specific primary antibodies, we developed a high throughput screening assay based on pY-fos-GHRct immune fluorescent detection in 384-well plates with automated microscopy. […]
panel). From left to right: Dapi staining to visualize nuclei, fos-GHRct staining: GHRtails are detected by […]

[1] = Homo sapiens, Figure 4, ranked according inhibitory effects on GHR signaling and/or cell proliferation, read-out: IC50
[2] = Homo sapiens, Table_2.xlsx, second analogue set, read-out: GHR INHIBITORS, BM#, IC50

Row | IC50 [2] [nM] | Compound | IC50 [1] [nM] | phosphorylation of STAT5 (pSTAT5) | phosphorylation of fos-pGHRct (pY) | phosphorylation of the active site of Jak2 (p1007/1008) | other results
1 |  | Cc1nc(N)nc(N)c1/C=C/C1(c2ccc(C(F)(F)F)cc2)CC1 [BM001] | 20 to 30 |  |  |  | EC50 (Homo sapiens, Table_2.xlsx, cell prints EC50, read-out: GHR INHIBITORS, BM#, EC50): 20 to 30 nM
2 | 50 | Cc1c(-c2cccc(C#N)c2)ccc2nc(N)nc(N)c12 [BM002] |  |  |  |  | 
3 | 50 | COc1cc(CN(C)c2ccc3nc(N)nc(N)c3c2)cc(OC)c1OC [BM003] |  |  |  |  | 
4 |  | Cc1nc(N)nc(N)c1C#CC1(c2ccc(Cl)cc2)CC1 [BM004] | 80 | lowered | lowered | lowered | IC50 (Homo sapiens, primary screen protocol, 20 h, read-out: IC50, dose-response on pY levels (fos-GHRct, pJak2, pSTAT5)): ~200 nM; IC50, dose-response on pY levels (fos-GHRct, pJak2, pSTAT5) (primary screen protocol, 20 h): comparable to that of Ruxolitinib
5 |  | CCOc1cccc2nc(N)nc(N)c12 [BM012] |  | lowered | lowered | lowered | IC50 (Homo sapiens, Table_1.xlsx, first analogue set, read-out: GHR INHIBITORS, BM#, (IC50)): 900 nM
6 |  | N#CC[C@H](C1CCCC1)n1cc(-c2ncnc3[nH]ccc23)cn1 [Ruxolitinib, reference compound] |  |  |  |  | pY signal at plateau of dose-response: close to zero
